Assay results taken from patent US4447453A, “Anti-peptic ulcer agent” (Chugai Seiyaku Kabushiki Kaisha, priority 1980, dated 1984).

Tests used:
[1] = Acute oral toxicity (LD50) in ddY mice; details: mouse, in vivo, male ddY mice, suspension in 2% aqueous gum arabic
Experimental: The compounds listed above have very low toxicity, and the first six compounds have following the LD50 values when they are administered orally to ddY strain male mice (5 weeks old and weighing from 26-30 g) in the form of a suspension in a 2% aqueous gum arabic: […]

[2] = tested on: ulcers developed in Shay rats; experiment: Pylorus ligation (Shay) ulcer test in rats; type: in vivo, rat (Sprague-Dawley, male)
Experimental: Groups of 8-week-old Spraque-Dawley male rats each consisting of 10 members were starved for 48 hours, anaethesized with ether and had their pylorus ligated in accordance with the method of Shay et al. (Gasteroenterology, 5, 43-61, 1945). Immediately thereafter, they were administered the compounds of the present invention intra-duodenally or intraperitoneally. Eighteen hours later, they were killed with excess ether and the gastric mucus membrane was removed and observed under a stereoscopic microscope (×10). The diameter (mm) of the ulcers developed in each rat was summed and the sum was used as the ulcer index of each rat.
The activity of the compounds of the present invention to cure peptic ulcer was measured as in Example 1. The test compound was administered in the duodenum.

[3] = tested on: rats with stress-induced ulcer; experiment: Restraint and water immersion stress ulcer test in rats (Takagi et al.); type: in vivo, rat (Sprague-Dawley, male); details: for inhibition in vivo at 50 mg/kg / inhibition in vivo at 100 mg/kg / inhibition in vivo at 200 mg/kg: Rattus norvegicus
Experimental: Groups of 7-week-old Sprague-Dawley male rats each consisting of 10 members were starved for 24 hours and administered orally the compounds of the present invention. Ten minutes later, they were confined in a restrainer cage according to the method of Takagi et al. (Japanese Journal of Pharmacology, 18, 9-18, 1968), and the cage was placed vertically in a water tank at 23°-24° C. until the rats were immersed in the water to the depth of the processus xiphoideus. Sixteen hours later, the rats were killed with excess ether and had their stomach removed. Each stomach was incised along the greater curvature after the surface of the gastric mucosa and serous membrane was lightly fixed with 1% formalin. The diameter (mm) of the ulcers developed in each rat was summed and the sum was used as the ulcer index for each rat.
The activity of the compounds of the present invention to cure peptic ulcer was measured as in Example 2.

[4] = Table 1, intra-duodenal, 50 mg/kg, 18 h
[5] = Table 1, intra-duodenal, 100 mg/kg, 18 h
[6] = Table 1, intra-duodenal, 200 mg/kg, 18 h
[7] = Table 1, intra-peritoneal, 50 mg/kg, 18 h
[8] = Table 2, oral, 50 mg/kg, 16 h immersion
[9] = Table 2, oral, 100 mg/kg, 16 h immersion
[10] = Table 2, oral, 200 mg/kg, 16 h immersion
[11] = Table 4, as in Example 2 (oral), 200 mg/kg
[12] = Table 3, administered in the duodenum, 100 mg/kg

With `O=C(O)c1ccccc1Nc1cc(Cl)ccc1C(=O)O` [Compound 1] the LD50 [1] was 2100 mg/kg.
In the case of `Cc1ccc(Nc2cc(Cl)ccc2C(=O)O)c(C(=O)O)c1` [Compound 2], the LD50 [1] is reported as greater than 1500 mg/kg, the inhibition [2, 4] is reported as 87.8% and the “ulcer index (means ± S.E.)” value [2, 4] is reported as 0.5 ± 0.3 mm. The inhibition [2, 5] was 92.7%, the “ulcer index (means ± S.E.)” value [2, 5] was 0.3 ± 0.3 mm and the inhibition [2, 6] was 100%. For the same compound, the “ulcer index (means ± S.E.)” value [2, 6] was 0 mm, the inhibition [2, 7] was 80.7% and the “ulcer index (means ± S.E.)” value [2, 7] was 0.8 ± 0.4 mm. For the same compound, the inhibition in vivo at 50 mg/kg [3, 8] was 22.5%, the inhibition in vivo at 100 mg/kg [3, 9] was 89.2% and the inhibition in vivo at 200 mg/kg [3, 10] was 100%. The “ulcer index (means ± S.E.)” value [3, 8] was 12.0 ± 6.2 mm, the “ulcer index (means ± S.E.)” value [3, 9] was 1.7 ± 1.2 mm and the “ulcer index (means ± S.E.)” value [3, 10] was 0 mm.
With `O=C(O)c1ccc(Cl)cc1Nc1cc(Cl)ccc1C(=O)O` [Compound 3] the LD50 [1] was greater than 2000 mg/kg, the inhibition [2, 4] was 33.7% and the “ulcer index (means ± S.E.)” value [2, 4] was 2.3 ± 0.7 mm. The inhibition [2, 5] was 78.0%, the “ulcer index (means ± S.E.)” value [2, 5] was 0.9 ± 0.6 mm and the inhibition [2, 6] was 100%. For the same compound, the “ulcer index (means ± S.E.)” value [2, 6] was 0 mm, the inhibition [2, 7] was 95.7% and the “ulcer index (means ± S.E.)” value [2, 7] was 0.3 ± 0.3 mm. For the same compound, the inhibition in vivo at 50 mg/kg [3, 8] was 23.3%, the inhibition in vivo at 100 mg/kg [3, 9] was 49.5% and the inhibition in vivo at 200 mg/kg [3, 10] was 92%. For the same compound, the “ulcer index (means ± S.E.)” value [3, 8] was 14.3 ± 3.9 mm, the “ulcer index (means ± S.E.)” value [3, 9] was 9.4 ± 4.8 mm and the “ulcer index (means ± S.E.)” value [3, 10] was 1.5 ± 0.8 mm.
With `Cc1ccc(C)c(C(=O)O)c1Nc1cc(Cl)ccc1C(=O)O` [Compound 4] the LD50 [1] was 3000 mg/kg.
With `Cc1c(Cl)ccc(C(=O)O)c1Nc1ccccc1C(=O)O` [Compound 5] the LD50 [1] was 1250 mg/kg, the inhibition [2, 4] was 67.1% and the “ulcer index (means ± S.E.)” value [2, 4] was 1.3 ± 0.6 mm. The inhibition [2, 5] was 96.6%, the “ulcer index (means ± S.E.)” value [2, 5] was 0.1 ± 0.1 mm and the inhibition [2, 6] was 100%. The “ulcer index (means ± S.E.)” value [2, 6] was 0 mm, the inhibition [2, 7] was 100% and the “ulcer index (means ± S.E.)” value [2, 7] was 0 mm. The inhibition in vivo at 50 mg/kg [3, 8] was 38.5%, the inhibition in vivo at 100 mg/kg [3, 9] was 88.2% and the inhibition in vivo at 200 mg/kg [3, 10] was 100%. For the same compound, the “ulcer index (means ± S.E.)” value [3, 8] was 9.6 ± 4.4 mm, the “ulcer index (means ± S.E.)” value [3, 9] was 1.8 ± 0.9 mm and the “ulcer index (means ± S.E.)” value [3, 10] was 0 mm.
In the case of `Cc1ccc(C(=O)O)c(Nc2ccccc2C(=O)O)c1` [Compound 6], the LD50 [1] is reported as greater than 2000 mg/kg, the inhibition [2, 4] is reported as 58.6% and the “ulcer index (means ± S.E.)” value [2, 4] is reported as 1.4 ± 0.7 mm. The inhibition [2, 5] was 92.5%, the “ulcer index (means ± S.E.)” value [2, 5] was 0.3 ± 0.3 mm and the inhibition [2, 6] was 100%. The “ulcer index (means ± S.E.)” value [2, 6] was 0 mm, the inhibition [2, 7] was 48.6% and the “ulcer index (means ± S.E.)” value [2, 7] was 2.0 ± 0.7 mm. For the same compound, the inhibition in vivo at 50 mg/kg [3, 8] was 34.3%, the inhibition in vivo at 100 mg/kg [3, 9] was 92.9% and the inhibition in vivo at 200 mg/kg [3, 10] was 100%. For the same compound, the “ulcer index (means ± S.E.)” value [3, 8] was 12.1 ± 3.5 mm, the “ulcer index (means ± S.E.)” value [3, 9] was 1.5 ± 1.1 mm and the “ulcer index (means ± S.E.)” value [3, 10] was 0 mm.
In the case of `COc1cc(Nc2ccccc2C(=O)O)c(C(=O)O)cc1OC` [Compound 7], the inhibition in vivo at 200 mg/kg [3, 11] is reported as 98.4% and the “ulcer index (means ± S.E.)” value [3, 11] is reported as 0.2 ± 0.1 mm.
With `COc1ccc(C(=O)O)c(Nc2cc(Cl)ccc2C(=O)O)c1` [Compound 8] the inhibition [2, 12] was 100.0%, the “ulcer index (means ± S.E.)” value [2, 12] was 0 ± 0 mm and the inhibition in vivo at 200 mg/kg [3, 11] was 96.7%. For the same compound, the “ulcer index (means ± S.E.)” value [3, 11] was 1.7 ± 1.3 mm.
For `Cc1ccc(C(=O)O)c(Nc2cc(Cl)ccc2C(=O)O)c1C` [Compound 9], the inhibition [2, 12] was 80.1%, the “ulcer index (means ± S.E.)” value [2, 12] was 0.7 ± 0.7 mm and the inhibition in vivo at 200 mg/kg [3, 11] was 83.4%. For the same compound, the “ulcer index (means ± S.E.)” value [3, 11] was 6.5 ± 3.4 mm.
For `Cc1cc(Nc2ccccc2C(=O)O)c(C(=O)O)cc1C` [Compound 10], the inhibition [2, 12] was 100.0%, the “ulcer index (means ± S.E.)” value [2, 12] was 0 ± 0 mm and the inhibition in vivo at 200 mg/kg [3, 11] was 90.1%. The “ulcer index (means ± S.E.)” value [3, 11] was 3.8 ± 1.5 mm.
For `Cc1cc(C)c(C(=O)O)c(Nc2ccccc2C(=O)O)c1` [Compound 11], the inhibition [2, 12] was 60.0%, the “ulcer index (means ± S.E.)” value [2, 12] was 1.4 ± 0.6 mm and the inhibition in vivo at 200 mg/kg [3, 11] was 96.9%. The “ulcer index (means ± S.E.)” value [3, 11] was 1.2 ± 0.9 mm.
For `Cc1cc(C(=O)O)c(Nc2ccccc2C(=O)O)cc1Cl` [Compound 12], the inhibition [2, 12] was 91.8%, the “ulcer index (means ± S.E.)” value [2, 12] was 0.3 ± 0.3 mm and the inhibition in vivo at 200 mg/kg [3, 11] was 96.7%. The “ulcer index (means ± S.E.)” value [3, 11] was 1.3 ± 0.7 mm.
In the case of `Cc1cc(C)c(C(=O)O)c(Nc2cc(Cl)ccc2C(=O)O)c1` [Compound 13], the inhibition [2, 12] is reported as 50.0%, the “ulcer index (means ± S.E.)” value [2, 12] is reported as 1.0 ± 0.7 mm and the inhibition in vivo at 200 mg/kg [3, 11] is reported as 70%. The “ulcer index (means ± S.E.)” value [3, 11] was 11.6 ± 6.2 mm.
For `Cc1ccc(C(=O)O)c(Nc2ccccc2C(=O)O)c1C` [Compound 14], the inhibition [2, 12] was 78.5%, the “ulcer index (means ± S.E.)” value [2, 12] was 0.4 ± 0.4 mm and the inhibition in vivo at 200 mg/kg [3, 11] was 90.9%. For the same compound, the “ulcer index (means ± S.E.)” value [3, 11] was 3.5 ± 1.6 mm.
For `Cc1cc(Nc2cc(Cl)ccc2C(=O)O)c(C(=O)O)cc1C` [Compound 15], the inhibition in vivo at 200 mg/kg [3, 11] was 78.8% and the “ulcer index (means ± S.E.)” value [3, 11] was 8.2 ± 3.2 mm.
